From article PMC10235985 (Proceedings of the National Academy of Sciences of the …, 2023)

Assays:
Nluc-NK1R (human NK1R) [1] = biological target: T1, Nluc-NK1R (human NK1R) (Homo sapiens, UniProt P25103); experiment: NanoBRET saturation binding of TAMRA-NT analogs, membranes from HEK293T cells; details: read-out: Kd for Nluc-NK1R; pH 7.4, saturation binding
NK1R [2] = biological target: T2, NK1R (Homo sapiens, UniProt P25103); experiment: cell-based
hNK1R-407 mice = experiment: Capsaicin-evoked mechanical allodynia; assay type: in vivo, mouse; details: 5 µL intrathecal; for duration of inhibition of capsaicin-evoked mechanical allodynia: 100 nM; for effect of higher dose on magnitude or duration of antinociception: 300 nM
Nluc-NK1R (human NK1R) [3] = biological target: T1, Nluc-NK1R (human NK1R); experiment: biochemical; assay type: binding
human NK1R-NP = human NK1R-NP (Homo sapiens, UniProt P25103); experiment: NanoBiT-BRET; assay type: cell-based; details: NT 30 min, n = 5
human NK1R-NP, sequence (P25103 whole entry): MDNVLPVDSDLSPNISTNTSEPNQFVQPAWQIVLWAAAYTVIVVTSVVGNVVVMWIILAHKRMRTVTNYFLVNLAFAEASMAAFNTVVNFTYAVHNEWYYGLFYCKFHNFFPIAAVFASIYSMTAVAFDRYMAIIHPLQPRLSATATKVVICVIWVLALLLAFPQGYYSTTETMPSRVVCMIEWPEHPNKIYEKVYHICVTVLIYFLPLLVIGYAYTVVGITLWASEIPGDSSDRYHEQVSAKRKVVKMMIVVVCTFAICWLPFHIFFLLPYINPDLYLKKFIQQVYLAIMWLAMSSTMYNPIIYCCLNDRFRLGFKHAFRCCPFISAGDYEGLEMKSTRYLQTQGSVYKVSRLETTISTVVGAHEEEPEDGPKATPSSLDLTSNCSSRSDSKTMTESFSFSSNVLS

NK1R [4] = biological target: T2, NK1R; experiment: ebBRET of SP-evoked mGαsq recruitment to early endosomes; assay type: cell-based; details: antagonist 10 µM added after 5 min SP; one phase decay
NK1R [5] = biological target: T2, NK1R; experiment: Nuclear ERK activity, Nuc-EKAR FRET biosensor, HEK293T cells with human NK1R; assay type: cell-based
[6] = logD experiments, distribution between octanol and aqueous buffer; assay type: physicochemical; details: octanol/phosphate buffer, pH 7
[7] = pKa measurement by potentiometric titration; assay type: physicochemical; details: 67% methanol aqueous solution
[8] = tested on: hNK1R-407, hNK1R-311, and wild-type mice; experiment: SP-evoked mechanical allodynia; assay type: in vivo, mouse; details: AP 100 nM/5 µL coadministered with SP 1 µg/5 µL intrathecal; hNK1R-407, hNK1R-311, wild-type mice
[9] = tested on: spinal neurons in NK1R-407 mice; design: species or system mouse; details: spinal cord slices

T2 sequence (P25103 whole entry): as above
T1 sequence (P25103 whole entry): as above

PS69: fluorescent TAMRA derivative of NT used as tracer in competition binding
Kd (Nluc-NK1R (human NK1R) [1]): 0.81 ± 0.065 nM

Cc1ccccc1-c1cc(N2CCN(C)CC2)ncc1N(C)C(=O)C(C)(C)c1cc(C(F)(F)F)cc(C(F)(F)F)c1 [NT, netupitant]
IC50 (NK1R [2]): 178 nM
duration of inhibition of capsaicin-evoked mechanical allodynia (hNK1R-407 mice): 4 h
effect of higher dose on magnitude or duration of antinociception (hNK1R-407 mice): did not further increase the magnitude or duration of the antinociception
Ki (Nluc-NK1R (human NK1R) [3]; Binding affinity BRET (Nluc-NK1R) pKi at pH 6.0): 0.851 nM
Ki (Nluc-NK1R (human NK1R) [3]; Ki (pH 7.4), pH 7.4, tracer PS69): 0.91 nM
IC50 (human NK1R-NP; pIC50, inhibition of mGαsq recruitment to NK1R-NP at the plasma membrane (CAAX), CAAX, plasma membrane): 6.46 nM
IC50 (human NK1R-NP; pIC50, inhibition of mGαsq recruitment to NK1R-NP in early endosomes (FYVE), FYVE, early endosomes): 20 nM
Kinetics of inhibition Endosomal miniGαsq (ebBRET) k for 10 µM (NK1R [4]): 0.14 ± 0.02 (9) min^−1
IC50 (NK1R [5]): 257 nM
logD [6]: 4.97
pKa [7]: 6.81

C[C@@H](O[C@H]1OCCN(Cc2n[nH]c(=O)[nH]2)[C@H]1c1ccc(F)cc1)c1cc(C(F)(F)F)cc(C(F)(F)F)c1 [AP, aprepitant]
duration of inhibition of capsaicin-evoked mechanical allodynia (hNK1R-407 mice): 2 h
effect of higher dose on magnitude or duration of antinociception (hNK1R-407 mice): did not further increase the magnitude or duration of the antinociception
effect on SP-evoked mechanical allodynia [8]: abolished
effect on SP-induced excitation of spinal neurons [9]: prevented SP-induced excitation

PS68: fluorescent tetramethylrhodamine (TAMRA) derivative of NT, also referred to as TAMRA-NT
Kd (Nluc-NK1R (human NK1R) [1]): 1.9 ± 0.39 nM
